According to patent US7935680B2, “Methods for modulating the axonal growth of central nervous system neurons” (Children's Medical Center Corporation, priority 1997, dated 2011):
Entries after “also recorded” stand apart in the source; their conditions may differ.

Key:
Assay type in all cases: cell-based
[1] = tested on: goldfish retinal ganglion cells; test: Axonal outgrowth from dissociated goldfish retinal ganglion cell cultures; conditions: for EC50: goldfish RGCs, 6 days, estimated from dose-response curves; for Emax: read-out: maximal response relative to the level induced by AF-1; for outgrowth at higher concentrations: concentrations above those giving the maximal response; for axonal outgrowth activity: tested at concentrations between 1-100 μM; for dependence of outgrowth on cell density: fixed concentration (100 μM), 3-4-fold range of cell densities; for restoration of AF-1-induced growth in the presence of 10 μM 6-TG: inosine 100 μM
Description: Axogenesis factor-1 was obtained essentially as described in Schwalb et al., 1995, and Schwalb et al., Neuroscience, 72: 901-910, 1996, the contents of which are incorporated herein by reference). Optic nerves were dissected, cut into fragments 1 mm in length, and incubated in a ratio of 6 nerves in 3 ml of either L-15 media (Gibco BRL) or phosphate-buffered saline (Gibco BRL). After 3-4 hours, nerve fragments were removed by filtering through a 0.22 μm pore low protein-binding filter (Gelman). A low molecular weight fraction of the conditioned media was prepared by ultrafiltration, first with a molecular weight cut-off of 3 kDa (Amicon Centriprep-3), then with a cut-off of 1 kDa (Filtron). The filtrate was used as a positive control at 20-30% final concentration. […] Goldfish (Comet Variety, Mt. Parnell Fisheries, Mt. Parnell Pa.), 6-10 cm in length, were dark-adapted and their retinas dissected. Retinas were incubated with papain (20 μg/ml), activated with cysteine (2.8 mM) for 30 minutes at room temperature, then dissociated by gentle trituration. […] Neuroscience 15: 5514-5625, 1995, the contents of which are incorporated herein by reference). […] Cells were maintained at 21° C. in serum free, defined media containing insulin, selenium, transferrin, bovine serum albumin, catalase, superoxide dismutase, hormones, and vitamins in Eagle's L-15 media as described in Schwalb et al., 1995, the contents of which are incorporated herein by reference). Dissociated cultures of purified rat retinal ganglion cells were prepared by immunopanning as described in Barres et al., Neuron, 1: 791-803, 1988, the contents of which are incorporated herein by reference). In brief, retinas from postnatal day 8 Sparague-Dawley rats were dissociated using papain activated with cysteine. Macrophages were removed by incubation with an anti-rat macrophage antibody (Accurate) followed by immunopanning with an anti-rabbit 1gG antibody. Ganglion cells were isolated by immunopanning with an anti-Thy-1 antibody, then dislodged with trypsin for use in low-density cultures. Rat retinal ganglion cells were maintained at 37° C. in a CO2 incubator using the same medium described above except for the presence of 30 mM bicarbonate. In a typical experiment, samples were plated in quadruplicate in randomized positions of a 24-well plate and the code was concealed to ensure that growth was evaluated in a blinded fashion. Each experiment contained 4 wells of a negative control (media plus supplements only) and 4 wells of a positive control (a standardized AF-1 sample of known activity). […] After the completion of counting, the code was broken, the data tabulated, and means and standard errors were calculated for the 4 replicate wells of each sample using Cricket Graph (CA Associates, […].). […] Group comparisons were based upon pairwise, 2-tailed Student's t-tests. Several independent experiments were performed for most samples, as noted in the figure legends. […] Cell survival is reported as the number of viable RGCs per high-powered field.

[2] = tested on: goldfish retinal ganglion cells; test: Cell survival in goldfish retinal ganglion cell cultures (viable RGCs per field)
Description: Goldfish (Comet Variety, Mt. Parnell Fisheries, Mt. Parnell Pa.), 6-10 cm in length, were dark-adapted and their retinas dissected. Retinas were incubated with papain (20 μg/ml), activated with cysteine (2.8 mM) for 30 minutes at room temperature, then dissociated by gentle trituration. […] Low density cultures were achieved by plating c. 5×10^3 cells/well into poly L-lysine coated, 24-well culture dishes (Costar, Cambridge, Mass.). […] In brief, retinas from postnatal day 8 Sparague-Dawley rats were dissociated using papain activated with cysteine. Macrophages were removed by incubation with an anti-rat macrophage antibody (Accurate) followed by immunopanning with an anti-rabbit 1gG antibody. Ganglion cells were isolated by immunopanning with an anti-Thy-1 antibody, then dislodged with trypsin for use in low-density cultures. Rat retinal ganglion cells were maintained at 37° C. in a CO2 incubator using the same medium described above except for the presence of 30 mM bicarbonate.
In a typical experiment, samples were plated in quadruplicate in randomized positions of a 24-well plate and the code was concealed to ensure that growth was evaluated in a blinded fashion. Each experiment contained 4 wells of a negative control (media plus supplements only) and 4 wells of a positive control (a standardized AF-1 sample of known activity). Growth and survival were assessed after 6 days for all ganglion cells in 25 consecutive fields of each well using phase contrast microscopy at 400× magnification (c. 150 ganglion cells counted per well). […] After the completion of counting, the code was broken, the data tabulated, and means and standard errors were calculated for the 4 replicate wells of each sample using Cricket Graph (CA Associates, Islandia, N.Y.). Data were normalized by subtracting the growth in the negative controls (usually 4-5%) and dividing by the net growth in the positive controls. […] Group comparisons were based upon pairwise, 2-tailed Student's t-tests. Several independent experiments were performed for most samples, as noted in the figure legends. In some cases, cell viability was assessed with the dye 5,6-carboxyfluorescein diacetate. Cell survival is reported as the number of viable RGCs per high-powered field.

GAP-43 = GAP-43 immunohistochemistry in goldfish retinal ganglion cells; conditions: for GAP-43 levels relative to L-15 treated controls: immunostaining
Description: One hallmark of optic nerve regeneration in vivo is the enhanced expression of the membrane phosphoprotein GAP-43. To investigate whether this upregulation is induced by purines, immunohistochemistry was carried out using a polyclonal rabbit antiserum against recombinant […] GAP-43. Recombinant zebrafish GAP-43 was made by transforming E. coli with a cDNA isolated by Dr. Eva Reinhard, University of Basel, Switzerland (see Reinhard et al., Development, 120: 1757-1775, 1994, the contents of which are incorporated herein by reference) subcloned into the prokaryotic expression vector pTrcHisB (Invitrogen). The protein produced was purified by Ni^2+-NTA-affinity chromatography and used to immunize rabbits. […] Inosine produced a 5.5-fold increase in the number of intensely stained cells over L-15, whereas AF-1 produced a 8-fold increase. In all 3 cases, the intensity of GAP-43 immunostaining correlated strongly with axonal length.

[3] = tested on: rat retinal ganglion cells; test: Axonal outgrowth from purified rat retinal ganglion cells; conditions: rat RGCs
Description: Goldfish (Comet Variety, Mt. Parnell Fisheries, Mt. Parnell Pa.), 6-10 cm in length, were dark-adapted and their retinas dissected. Retinas were incubated with papain (20 μg/ml), activated with cysteine (2.8 mM) for 30 minutes at room temperature, then dissociated by gentle trituration. Repeated cycles of trituration and sedimentation yielded cultures nearly homogeneous in ganglion cells, which are readily identified by their oval shape, phase-bright appearance, size (diameter 15 μm), and extension of only 1 or 2 neurites of uniform caliber; these criteria have been verified by retrograde labeling (see Schwartz & Agranoff, Brain Res. 206: 331-343, 1981 and Schwalb et al., J. Neuroscience 15: 5514-5625, 1995, the contents of which are incorporated herein by reference). Low density cultures were achieved by plating c. 5×10^3 cells/well into poly L-lysine coated, 24-well culture dishes (Costar, Cambridge, Mass.). Cells were maintained at 21° C. in serum free, defined media containing insulin, selenium, transferrin, bovine serum albumin, catalase, superoxide dismutase, hormones, and vitamins in Eagle's L-15 media as described in Schwalb et al., 1995, the contents of which are incorporated herein by reference). Dissociated cultures of purified rat retinal ganglion cells were prepared by immunopanning as described in Barres et al., Neuron, 1: 791-803, 1988, the contents of which are incorporated herein by reference). In brief, retinas from postnatal day 8 Sparague-Dawley rats were dissociated using papain activated with cysteine. Macrophages were removed by incubation with an anti-rat macrophage antibody (Accurate) followed by immunopanning with an anti-rabbit 1gG antibody. Ganglion cells were isolated by immunopanning with an anti-Thy-1 antibody, then dislodged with trypsin for use in low-density cultures. Rat retinal ganglion cells were maintained at 37° C. in a CO2 incubator using the same medium described above except for the presence of 30 mM bicarbonate.
In a typical experiment, samples were plated in quadruplicate in randomized positions of a 24-well plate and the code was concealed to ensure that growth was evaluated in a blinded fashion. Each experiment contained 4 wells of a negative control (media plus supplements only) and 4 wells of a positive control (a standardized AF-1 sample of known activity). Growth and survival were assessed after 6 days for all ganglion cells in 25 consecutive fields of each well using phase contrast microscopy at 400× magnification (c. 150 ganglion cells counted per well). Extension of a process 5 cell diameters in length was the criterion for growth, since it clearly distinguishes stimulated cells from negative controls (see Schwalb et al., 1995). After the completion of counting, the code was broken, the data tabulated, and means and standard errors were calculated for the 4 replicate wells of each sample using Cricket Graph (CA Associates, Islandia, N.Y.). Data were normalized by subtracting the growth in the negative controls (usually 4-5%) and dividing by the net growth in the positive controls. In the most favorable experiments, more than 50% of retinal ganglion cells (RGCs) exposed to AF-1 extended axons 5 cell diameters in length after 6 days. Group comparisons were based upon pairwise, 2-tailed Student's t-tests. Several independent experiments were performed for most samples, as noted in the figure legends. In some cases, cell viability was assessed with the dye 5,6-carboxyfluorescein diacetate. […]

[4] = Carassius auratus, normalized to AF-1 positive control, adenosine 50-100 μM, guanosine 100 μM, inosine above 25 or 50 μM

Molecule: Nc1ncnc2c1ncn2[C@@H]1O[C@H](CO)[C@@H](O)[C@H]1O [adenosine]
- outgrowth when adenosine hydrolysis is blocked ([1]; 100 μM adenosine in the presence of 10 μM DCF): suppress growth; also recorded: failed to stimulate growth, but caused it to decline below baseline levels
- EC50 ([1]; Carassius auratus, 144 h): 10 to 15 µM
- Emax [1, 4]: 60%
- outgrowth at higher concentrations [1]: outgrowth decreased
- axonal outgrowth activity [1]: stimulated almost as much outgrowth from goldfish retinal ganglion cells as AF-1
- cell survival when ADA is blocked with DCF [2]: causes adenosine to suppress growth (e, top) and survival

Molecule: Nc1nc2c(ncn2[C@@H]2O[C@H](CO)[C@@H](O)[C@H]2O)c(=O)[nH]1 [guanosine]
- GAP-43 levels relative to L-15 treated controls (GAP-43): large increase in GAP-43 levels
- EC50 ([1]; Carassius auratus, 144 h): 20 to 30 µM
- outgrowth at higher concentrations [1]: no obvious decrease in activity
- dependence of outgrowth on cell density [1]: growth is not a function of cell density; also recorded: independent of cell density
- EC50 [1]: 25 µM
- maximal response relative to the level induced by AF-1 ([1]; normalized to AF-1 positive control, adenosine 50-100 μM, guanosine 100 μM, inosine above 25 or 50 μM): same maximal level of activity as adenosine
- axonal outgrowth activity [1]: stimulated almost as much outgrowth from goldfish retinal ganglion cells as AF-1

Molecule: OC[C@H]1O[C@@H](n2cnc3c(O)ncnc32)[C@H](O)[C@@H]1O [inosine]
- increase in the number of intensely stained cells over L-15 (GAP-43; GAP-43 immunoreactivity score 2 (intense), 150-200 cells): 5.5 fold
- GAP-43 levels relative to L-15 treated controls (GAP-43): large increase in GAP-43 levels
- EC50 ([1]; Carassius auratus, 144 h): 10 to 15 µM
- Emax [1, 4]: ~60%
- outgrowth at higher concentrations [1]: did not cause growth to decline
- dependence of outgrowth on cell density [1]: growth is not a function of cell density; also recorded: independent of cell density
- restoration of AF-1-induced growth in the presence of 10 μM 6-TG [1]: fully restored the growth induced by AF-1
- restoration of AF-1-induced growth in the presence of 10 μM 6-TG ([1]; listed as Inosine): restored all of the growth induced by AF-1
- combined effect with AF-1 ([1]; inosine and AF-1 at saturating / higher concentrations): growth saturates at the level stimulated by high AF-1 levels alone; also recorded: growth reached a plateau level
- combined effect with AF-1 ([1]; inosine and AF-1 each at EC50 (half-maximal) levels): additive effects
- restoration of CNTF stimulated growth in the presence of 10 μM 6-TG ([3]; inosine 25 μM): fully restored
- restoration of CNTF-induced outgrowth in the presence of 10 μM 6-TG ([3]; inosine 50 μM): restored CNTF-induced outgrowth nearly to its original level
- increase in the number of cells extending axons 5 cell diameters in length ([3]; inosine at 25 or 50 μM): 50%

B1: ADA: exogenous adenosine deaminase enzyme (protein, UniProt P00813 2-363, looked up)
Adenosine deaminase: AQTPAFDKPKVELHVHLDGSIKPETILYYGRRRGIALPANTAEGLLNVIGMDKPLTLPDFLAKFDYYMPAIAGCREAIKRIAYEFVEMKAKEGVVYVEVRYSPHLLANSKVEPIPWNQAEGDLTPDEVVALVGQGLQEGERDFGVKARSILCCMRHQPNWSPKVVELCKKYQQQTVVAIDLAGDETIPGSSLLPGHVQAYQEAVKSGIHRTVHAGEVGSAEVVKEAVDILKTERLGHGYHTLEDQALYNRLRQENMHFEICPWSSYLTGAWKPDTEHAVIRLKNDQANYSLNTDDPLIFKSTLDTDYQMTKRDMGFTEEEFKRLNINAAKSSFLPEDEKRELLDLLYKAYGMPPSASAGQNL
- effect on outgrowth stimulated by 100 μM adenosine ([1]; exogenous ADA 0.4 U/ml): unaltered; also recorded: did not diminish axon outgrowth
- effect on cell survival ([2]; exogenous ADA 0.4 U/ml with 100 μM adenosine): did not diminish axon outgrowth stimulated by 100 μM adenosine or affect cell survival
